From ChEMBL document CHEMBL3045499, “Chem-bioinformatics and in vitro approaches for candidate optimization: a case study of NSC745689 as a promising antitumor agent” (Med Chem Res, 2013)
pIC50: −log10 of the molar value. Calls of active or inactive are those of the source. The rule behind the calls is not given here.

Columns and labels:
[1] = tested on: MCF7; assay: Growth inhibition of Homo sapiens (human) MCF7 cells after 48 hr by SRB assay; type: functional; conditions: MCF7, 48 h
[2] = tested on: NCI-H322M; assay: Growth inhibition of Homo sapiens (human) NCI-H322M cells after 48 hr by SRB assay; type: functional
[3] = tested on: RPMI-8226; assay: Growth inhibition of Homo sapiens (human) RPMI8226 cells after 48 hr by SRB assay; type: functional; conditions: RPMI-8226, 48 h
[4] = tested on: SNB-75; assay: Growth inhibition of Homo sapiens (human) SNB75 cells after 48 hr by SRB assay; type: functional; conditions: SNB-75, 48 h
[5] = tested on: NCI-H522; assay: Growth inhibition of Homo sapiens (human) NCI-H522 cells after 48 hr by SRB assay; type: functional; conditions: NCI-H522, 48 h
[6] = tested on: CCRF-CEM; assay: Growth inhibition of Homo sapiens (human) CCRF-CEM cells after 48 hr by SRB assay; type: functional
[7] = molecular target: Cytochrome P450 1A1 (Homo sapiens, UniProt P04798); assay: Inhibition of recombinant CYP1A1 (unknown origin) using 7-ethoxyresorufin as substrate by EROD assay
Chain of Cytochrome P450 1A1 (P04798 whole entry): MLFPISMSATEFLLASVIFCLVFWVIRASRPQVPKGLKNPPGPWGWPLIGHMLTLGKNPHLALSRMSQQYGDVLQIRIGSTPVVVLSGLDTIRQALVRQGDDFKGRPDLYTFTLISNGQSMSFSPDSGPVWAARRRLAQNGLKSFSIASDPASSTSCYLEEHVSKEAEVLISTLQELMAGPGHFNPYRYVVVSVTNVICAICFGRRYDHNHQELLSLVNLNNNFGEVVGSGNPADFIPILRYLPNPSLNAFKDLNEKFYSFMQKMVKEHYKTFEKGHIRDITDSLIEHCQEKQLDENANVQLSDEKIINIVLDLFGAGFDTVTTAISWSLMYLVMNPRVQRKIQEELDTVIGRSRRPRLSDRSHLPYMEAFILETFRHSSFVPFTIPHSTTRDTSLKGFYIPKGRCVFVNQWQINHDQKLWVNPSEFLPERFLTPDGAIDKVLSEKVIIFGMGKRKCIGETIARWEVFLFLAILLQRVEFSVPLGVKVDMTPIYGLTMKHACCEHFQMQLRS

[8] = tested on: NCI/ADR-RES; assay: Growth inhibition of Homo sapiens (human) NCI/ADR-RES cells after 48 hr by SRB assay; type: functional
[9] = tested on: EKVX; assay: Growth inhibition of Homo sapiens (human) EKVX cells after 48 hr by SRB assay; type: functional
[10] = tested on: NCI-H23; assay: Growth inhibition of Homo sapiens (human) NCI-H23 cells after 48 hr by SRB assay; type: functional; conditions: NCI-H23, 48 h
[11] = tested on: T47D; assay: Growth inhibition of Homo sapiens (human) T47D cells after 48 hr by SRB assay; type: functional
[12] = tested on: HL-60(TB); assay: Growth inhibition of Homo sapiens (human) HL-60(TB) cells after 48 hr by SRB assay; type: functional; conditions: HL-60, 48 h
[13] = tested on: SNB-75; assay: Growth inhibition of Homo sapiens (human) SNB75 cells at 1 uM after 48 hr by SRB assay; type: functional, cell-based
[14] = tested on: MOLT-4; assay: Growth inhibition of Homo sapiens (human) MOLT4 cells after 48 hr by SRB assay; type: functional; conditions: MOLT-4, 48 h
[15] = tested on: SF-268; assay: Growth inhibition of Homo sapiens (human) SF268 cells after 48 hr by SRB assay; type: functional; conditions: SF-268, 48 h
[16] = tested on: BT-549; assay: Growth inhibition of Homo sapiens (human) BT549 cells after 48 hr by SRB assay; type: functional; conditions: BT-549, 48 h
[17] = tested on: NCI-H226; assay: Growth inhibition of Homo sapiens (human) NCI-H226 cells after 48 hr by SRB assay; type: functional; conditions: NCI-H226, 48 h
[18] = tested on: MDA-MB-231; assay: Growth inhibition of Homo sapiens (human) MDA-MB-231/ATCC cells after 48 hr by SRB assay; type: functional; conditions: MDA-MB-231, 48 h
[19] = tested on: MDA-MB-435; assay: Growth inhibition of Homo sapiens (human) MDA-MB-435 cells after 48 hr by SRB assay; type: functional; conditions: MDA-MB-435, 48 h
[20] = tested on: A549; assay: Growth inhibition of Homo sapiens (human) A549/ATCC cells after 48 hr by SRB assay; type: functional; conditions: A549, 48 h
[21] = tested on: U-251; assay: Growth inhibition of Homo sapiens (human) U251 cells after 48 hr by SRB assay; type: functional; conditions: U-251, 48 h
[22] = tested on: NCI-H460; assay: Growth inhibition of Homo sapiens (human) NCI-H460 cells after 48 hr by SRB assay; type: functional; conditions: NCI-H460, 48 h
[23] = tested on: HOP-92; assay: Growth inhibition of Homo sapiens (human) HOP92 cells after 48 hr by SRB assay; type: functional; conditions: HOP-92, 48 h
[24] = tested on: SR; assay: Growth inhibition of Homo sapiens (human) SR cells after 48 hr by SRB assay; type: functional
[25] = tested on: SF-295; assay: Growth inhibition of Homo sapiens (human) SF295 cells after 48 hr by SRB assay; type: functional; conditions: SF-295, 48 h
[26] = tested on: Hs-578T; assay: Growth inhibition of Homo sapiens (human) Hs 578T cells after 48 hr by SRB assay; type: functional
[27] = tested on: HOP-62; assay: Growth inhibition of Homo sapiens (human) HOP62 cells after 48 hr by SRB assay; type: functional; conditions: HOP-62, 48 h
[28] = tested on: SNB-19; assay: Growth inhibition of Homo sapiens (human) SNB19 cells after 48 hr by SRB assay; type: functional; conditions: SNB-19, 48 h
[29] = tested on: SF-539; assay: Growth inhibition of Homo sapiens (human) SF539 cells after 48 hr by SRB assay; type: functional; conditions: SF-539, 48 h
[30] = tested on: K562; assay: Growth inhibition of Homo sapiens (human) K562 cells after 48 hr by SRB assay; type: functional; conditions: K562, 48 h
[31] = tested on: HOP-92; assay: Growth inhibition of Homo sapiens (human) HOP92 cells at 1 uM after 48 hr by SRB assay; type: functional, cell-based
[32] = tested on: MDA-MB-468; assay: Growth inhibition of Homo sapiens (human) MDA-MB-468 cells after 48 hr by SRB assay; type: functional; conditions: MDA-MB-468, 48 h

Compound: CSc1nc2sc3cc(Cl)ccc3n2c(=N)c1C#N
- GI50 [1]: 3.89 µM
- GI50 [2]: > 100 µM
- GI50 [3]: 64.6 µM
- GI50 ([4]; read-out: GI50): 0.416 µM
- GI50 ([4]; read-out: pGI50 (converted)): 12.3 µM
- GI50 [5]: 60.3 µM
- GI50 [6]: 3.55 µM
- pIC50 [7]: 5.60
- GI50 [8]: 17.8 µM
- GI50 [9]: 9.77 µM
- GI50 [10]: 26.9 µM
- GI50 [11]: 28.2 µM
- GI50 [12]: 1.35 µM
- growth inhibition (GI) [13]: Active
- GI50 [14]: 2.51 µM
- GI50 [15]: 21.4 µM
- GI50 [16]: 23.4 µM
- GI50 [17]: 38 µM
- GI50 [18]: 74.1 µM
- GI50 [19]: > 100 µM
- GI50 [20]: 5.89 µM
- GI50 [21]: 30.2 µM
- GI50 [22]: 63.1 µM
- GI50 ([23]; read-out: GI50): 0.219 µM
- GI50 ([23]; read-out: pGI50 (converted)): 0.01 µM
- GI50 [24]: 9.77 µM
- GI50 [25]: 2.19 µM
- GI50 ([26]; read-out: GI50): 1.71 µM
- GI50 ([26]; read-out: pGI50 (converted)): 4.9 µM
- GI50 [27]: 38 µM
- GI50 [28]: 40.7 µM
- GI50 [29]: 26.9 µM
- GI50 [30]: 27.5 µM
- growth inhibition (GI) [31]: Active

Compound: COc1ccc(Nc2nc3sc4cc(Cl)ccc4n3c(=N)c2C#N)cc1
- GI50 [1]: 2.51 µM
- GI50 [2]: 3.31 µM
- GI50 [3]: 17 µM
- GI50 ([4]; read-out: pGI50 (converted)): 3.39 µM
- GI50 [32]: 3.55 µM
- GI50 [5]: 33.1 µM
- GI50 [6]: 17.4 µM
- GI50 [8]: 2.82 µM
- GI50 [9]: 1.91 µM
- GI50 [10]: 1.55 µM
- GI50 [11]: 29.5 µM
- GI50 [12]: 34.7 µM
- GI50 [14]: 13.2 µM
- GI50 [15]: 4.37 µM
- GI50 [16]: 4.07 µM
- GI50 [17]: 1.91 µM
- GI50 [18]: 2.04 µM
- GI50 [19]: 3.09 µM
- GI50 [20]: 50.1 µM
- GI50 [21]: 4.07 µM
- GI50 [22]: 26.3 µM
- GI50 ([23]; read-out: pGI50 (converted)): 20.9 µM
- GI50 [24]: 19.1 µM
- GI50 [25]: 1.7 µM
- GI50 ([26]; read-out: GI50): 0.406 µM
- GI50 ([26]; read-out: pGI50 (converted)): 0.407 µM
- GI50 [27]: 3.39 µM
- GI50 [28]: 40.7 µM
- GI50 [29]: 30.9 µM
- GI50 [30]: 57.5 µM

Compound: N#Cc1c(Nc2ccc(Cl)cc2)nc2sc3cc(Cl)ccc3n2c1=N
- GI50 [1]: 1.82 µM
- GI50 [2]: 28.2 µM
- GI50 ([4]; read-out: pGI50 (converted)): 5.01 µM
- GI50 [32]: 3.63 µM
- GI50 [8]: 4.68 µM
- GI50 [9]: 10.2 µM
- GI50 [10]: 0.646 µM
- GI50 [11]: > 100 µM
- GI50 [12]: > 100 µM
- GI50 [14]: 2.51 µM
- GI50 [15]: 4.07 µM
- GI50 [16]: 24.5 µM
- GI50 [17]: 2.4 µM
- GI50 [18]: 7.24 µM
- GI50 [19]: 6.17 µM
- GI50 [21]: 6.61 µM
- GI50 [22]: 21.9 µM
- GI50 ([23]; read-out: GI50): 1.82 µM
- GI50 ([23]; read-out: pGI50 (converted)): > 100 µM
- GI50 [24]: 2.29 µM
- GI50 [25]: 3.02 µM
- GI50 ([26]; read-out: pGI50 (converted)): 1.45 µM
- GI50 [27]: 0.00457 µM
- GI50 [28]: > 100 µM
- GI50 [29]: 8.71 µM
- GI50 [30]: > 100 µM
